# Laboratory results reported in PubChem BioAssay AID2060599 (Molecular Pharmacology Branch, DTP, NCI, 2025).
# System: 817829-284-R-J1-PDC complex spheroids, viability
# Experiment: Anticancer human tumor 817829-284-R-J1-PDC patient-derived colon adenocarcinoma cell line growth inhibition [CLK]
# Conditions: for IC50: curve of first compound; for viability, T/C: stronger effect = lower value
# Outline: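 Multi-cell-type spheroids combined patient-derived tumor cells with HUVEC endothelial cells and human mesenchymal stem cells. Paired agents were dosed in half-log steps down from about clinical Cmax, or from 10 microM where Cmax was unknown.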
# [1] = second compound 0.0316 µM, first compound 0.00949 µM
# [2] = second compound 0.0316 µM, first compound 0.03 µM
# [3] = second compound 0.0316 µM, first compound 0.0949 µM
# [4] = second compound 0.0316 µM, first compound 0.3 µM
# [5] = second compound 0.1 µM, first compound 0.00949 µM
# [6] = second compound 0.1 µM, first compound 0.03 µM
# [7] = second compound 0.1 µM, first compound 0.0949 µM
# [8] = second compound 0.1 µM, first compound 0.3 µM
# [9] = second compound 0.316 µM, first compound 0.00949 µM
# [10] = second compound 0.316 µM, first compound 0.03 µM
# [11] = second compound 0.316 µM, first compound 0.0949 µM
# [12] = second compound 0.316 µM, first compound 0.3 µM
# [13] = second compound 1 µM, first compound 0.00949 µM
# [14] = second compound 1 µM, first compound 0.03 µM
# [15] = second compound 1 µM, first compound 0.0949 µM
# [16] = second compound 1 µM, first compound 0.3 µM
# [17] = second compound 3.16 µM, first compound 0.00949 µM
# [18] = second compound 3.16 µM, first compound 0.03 µM
# [19] = second compound 3.16 µM, first compound 0.0949 µM
# [20] = second compound 3.16 µM, first compound 0.3 µM
# [21] = second compound 10 µM, first compound 0.00949 µM
# [22] = second compound 10 µM, first compound 0.03 µM
# [23] = second compound 10 µM, first compound 0.0949 µM
# [24] = second compound 10 µM, first compound 0.3 µM
# [25] = second compound 0.0316 µM, first compound 0.0316 µM
# [26] = second compound 0.0316 µM, first compound 0.1 µM
# [27] = second compound 0.0316 µM, first compound 0.316 µM
# [28] = second compound 0.0316 µM, first compound 1 µM
# [29] = second compound 0.0316 µM, first compound 3.16 µM
# [30] = second compound 0.0316 µM, first compound 10 µM
# [31] = second compound 0.1 µM, first compound 0.0316 µM
# [32] = second compound 0.1 µM, first compound 0.1 µM
# [33] = second compound 0.1 µM, first compound 0.316 µM
# [34] = second compound 0.1 µM, first compound 1 µM
# [35] = second compound 0.1 µM, first compound 3.16 µM
# [36] = second compound 0.1 µM, first compound 10 µM
# [37] = second compound 0.316 µM, first compound 0.0316 µM
# [38] = second compound 0.316 µM, first compound 0.1 µM
# [39] = second compound 0.316 µM, first compound 0.316 µM
# [40] = second compound 0.316 µM, first compound 1 µM
# [41] = second compound 0.316 µM, first compound 3.16 µM
# [42] = second compound 0.316 µM, first compound 10 µM
# [43] = second compound 1 µM, first compound 0.0316 µM
# [44] = second compound 1 µM, first compound 0.1 µM
# [45] = second compound 1 µM, first compound 0.316 µM
# [46] = second compound 1 µM, first compound 1 µM
# [47] = second compound 1 µM, first compound 3.16 µM
# [48] = second compound 1 µM, first compound 10 µM
# [49] = second compound 3.16 µM, first compound 0.0316 µM
# [50] = second compound 3.16 µM, first compound 0.1 µM
# [51] = second compound 3.16 µM, first compound 0.316 µM
# [52] = second compound 3.16 µM, first compound 1 µM
# [53] = second compound 3.16 µM, first compound 3.16 µM
# [54] = second compound 3.16 µM, first compound 10 µM
# [55] = second compound 10 µM, first compound 0.0316 µM
# [56] = second compound 10 µM, first compound 0.1 µM
# [57] = second compound 10 µM, first compound 0.316 µM
# [58] = second compound 10 µM, first compound 1 µM
# [59] = second compound 10 µM, first compound 3.16 µM
# [60] = second compound 10 µM, first compound 10 µM
# 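Also: spheroids exposed to the agents for seven days before readout.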
compound,measurement,setting,value
C=CC(=O)Nc1cc(Nc2nccc(-c3cn(C)c4ccccc34)n2)c(OC)cc1N(C)CCN(C)C + CN1CCN(c2cc(C(=O)Nc3cc4cc(-c5cnn(C)c5)ccc4cn3)ccn2)CC1,IC50,second compound 0.0316 µM,> 300 nM
same,IC50,second compound 0.1 µM,< 0.949 nM
same,IC50,second compound 0.316 µM,< 0.949 nM
same,IC50,second compound 1 µM,< 0.949 nM
same,IC50,second compound 3.16 µM,< 0.949 nM
same,IC50,second compound 10 µM,< 0.949 nM
same,"viability, T/C","second compound 0.0316 µM, first compound 0.000949 µM",51.7%
same,"viability, T/C","second compound 0.0316 µM, first compound 0.003 µM",48.2%
same,"viability, T/C",[1],57.6%
same,"viability, T/C",[2],58.5%
same,"viability, T/C",[3],67.9%
same,"viability, T/C",[4],41.1%
same,"viability, T/C","second compound 0.1 µM, first compound 0.000949 µM",16.4%
same,"viability, T/C","second compound 0.1 µM, first compound 0.003 µM",17.8%
same,"viability, T/C",[5],16.3%
same,"viability, T/C",[6],19.6%
same,"viability, T/C",[7],14.4%
same,"viability, T/C",[8],10.9%
same,"viability, T/C","second compound 0.316 µM, first compound 0.000949 µM",1.39%
same,"viability, T/C","second compound 0.316 µM, first compound 0.003 µM",1.52%
same,"viability, T/C",[9],1.82%
same,"viability, T/C",[10],1.58%
same,"viability, T/C",[11],1.13%
same,"viability, T/C",[12],0.72%
same,"viability, T/C","second compound 1 µM, first compound 0.000949 µM",0.08%
same,"viability, T/C","second compound 1 µM, first compound 0.003 µM",0.12%
same,"viability, T/C",[13],0.1%
same,"viability, T/C",[14],0.09%
same,"viability, T/C",[15],0.17%
same,"viability, T/C",[16],0.09%
same,"viability, T/C","second compound 3.16 µM, first compound 0.000949 µM",0.14%
same,"viability, T/C","second compound 3.16 µM, first compound 0.003 µM",0.16%
same,"viability, T/C",[17],0.18%
same,"viability, T/C",[18],0.12%
same,"viability, T/C",[19],0.1%
same,"viability, T/C",[20],0.1%
same,"viability, T/C","second compound 10 µM, first compound 0.000949 µM",0.14%
same,"viability, T/C","second compound 10 µM, first compound 0.003 µM",0.13%
same,"viability, T/C",[21],0.13%
same,"viability, T/C",[22],0.13%
same,"viability, T/C",[23],0.15%
same,"viability, T/C",[24],0.13%
CC1(C)CCC(CN2CCN(c3ccc(C(=O)NS(=O)(=O)c4ccc(NCC5CCOCC5)c([N+](=O)[O-])c4)c(Oc4cnc5[nH]ccc5c4)c3)CC2)=C(c2ccc(Cl)cc2)C1 + CN1CCN(c2cc(C(=O)Nc3cc4cc(-c5cnn(C)c5)ccc4cn3)ccn2)CC1,IC50,second compound 0.0316 µM,4030 nM
same,IC50,second compound 0.1 µM,< 31.6 nM
same,IC50,second compound 0.316 µM,< 31.6 nM
same,IC50,second compound 1 µM,< 31.6 nM
same,IC50,second compound 3.16 µM,< 31.6 nM
same,IC50,second compound 10 µM,< 31.6 nM
same,"viability, T/C",[25],92.8%
same,"viability, T/C",[26],64.9%
same,"viability, T/C",[27],46.8%
same,"viability, T/C",[28],80.8%
same,"viability, T/C",[29],63.2%
same,"viability, T/C",[30],1.02%
same,"viability, T/C",[31],18%
same,"viability, T/C",[32],19.6%
same,"viability, T/C",[33],16.1%
same,"viability, T/C",[34],18.4%
same,"viability, T/C",[35],20%
same,"viability, T/C",[36],0.96%
same,"viability, T/C",[37],1.84%
same,"viability, T/C",[38],1.97%
same,"viability, T/C",[39],1.65%
same,"viability, T/C",[40],2.48%
same,"viability, T/C",[41],1.41%
same,"viability, T/C",[42],0.06%
same,"viability, T/C",[43],0.11%
same,"viability, T/C",[44],0.09%
same,"viability, T/C",[45],0.08%
same,"viability, T/C",[46],0.09%
same,"viability, T/C",[47],0.09%
same,"viability, T/C",[48],0.06%
same,"viability, T/C",[49],0.12%
same,"viability, T/C",[50],0.12%
same,"viability, T/C",[51],0.12%
same,"viability, T/C",[52],0.11%
same,"viability, T/C",[53],0.13%
same,"viability, T/C",[54],0.07%
same,"viability, T/C",[55],0.06%
same,"viability, T/C",[56],0.07%
same,"viability, T/C",[57],0.09%
same,"viability, T/C",[58],0.09%
same,"viability, T/C",[59],0.17%
same,"viability, T/C",[60],0.1%
NC(=O)C(=Cn1cnc(-c2cc(C(F)(F)F)cc(C(F)(F)F)c2)n1)c1cncnc1 + CN1CCN(c2cc(C(=O)Nc3cc4cc(-c5cnn(C)c5)ccc4cn3)ccn2)CC1,IC50,second compound 0.0316 µM,< 9.49 nM
same,IC50,second compound 0.1 µM,< 9.49 nM
same,IC50,second compound 0.316 µM,< 9.49 nM
same,IC50,second compound 1 µM,< 9.49 nM
same,IC50,second compound 3.16 µM,< 9.49 nM
same,IC50,second compound 10 µM,< 9.49 nM
same,"viability, T/C",[1],21.1%
same,"viability, T/C",[2],19.4%
same,"viability, T/C",[3],8.87%
same,"viability, T/C",[4],2.37%
same,"viability, T/C","second compound 0.0316 µM, first compound 0.949 µM",1.3%
same,"viability, T/C","second compound 0.0316 µM, first compound 3 µM",0.87%
same,"viability, T/C",[5],7.2%
same,"viability, T/C",[6],4.72%
same,"viability, T/C",[7],1.8%
same,"viability, T/C",[8],0.15%
same,"viability, T/C","second compound 0.1 µM, first compound 0.949 µM",0.19%
same,"viability, T/C","second compound 0.1 µM, first compound 3 µM",0.22%
same,"viability, T/C",[9],0.46%
same,"viability, T/C",[10],0.1%
same,"viability, T/C",[11],0.07%
same,"viability, T/C",[12],0.05%
same,"viability, T/C","second compound 0.316 µM, first compound 0.949 µM",0.06%
same,"viability, T/C","second compound 0.316 µM, first compound 3 µM",0.17%
same,"viability, T/C",[13],0.06%
same,"viability, T/C",[14],0.09%
same,"viability, T/C",[15],0.13%
same,"viability, T/C",[16],0.1%
same,"viability, T/C","second compound 1 µM, first compound 0.949 µM",0.12%
same,"viability, T/C","second compound 1 µM, first compound 3 µM",0.29%
same,"viability, T/C",[17],0.06%
same,"viability, T/C",[18],0.16%
same,"viability, T/C",[19],0.19%
same,"viability, T/C",[20],0.12%
same,"viability, T/C","second compound 3.16 µM, first compound 0.949 µM",0.17%
same,"viability, T/C","second compound 3.16 µM, first compound 3 µM",0.21%
same,"viability, T/C",[21],0.02%
same,"viability, T/C",[22],0.09%
same,"viability, T/C",[23],0.13%
same,"viability, T/C",[24],0.1%
same,"viability, T/C","second compound 10 µM, first compound 0.949 µM",0.17%
same,"viability, T/C","second compound 10 µM, first compound 3 µM",0.11%
Nc1ccccc1NC(=O)c1ccc(CNC(=O)OCc2cccnc2)cc1 + CN1CCN(c2cc(C(=O)Nc3cc4cc(-c5cnn(C)c5)ccc4cn3)ccn2)CC1,IC50,second compound 0.0316 µM,223 nM
same,IC50,second compound 0.1 µM,< 31.6 nM
same,IC50,second compound 0.316 µM,< 31.6 nM
same,IC50,second compound 1 µM,< 31.6 nM
same,IC50,second compound 3.16 µM,< 31.6 nM
same,IC50,second compound 10 µM,< 31.6 nM
same,"viability, T/C",[25],61.1%
same,"viability, T/C",[26],70.6%
same,"viability, T/C",[27],39.5%
same,"viability, T/C",[28],21.9%
same,"viability, T/C",[29],3.59%
same,"viability, T/C",[30],0.06%
same,"viability, T/C",[31],15.1%
same,"viability, T/C",[32],14.2%
same,"viability, T/C",[33],13.4%
same,"viability, T/C",[34],5.61%
same,"viability, T/C",[35],0.84%
same,"viability, T/C",[36],0.03%
same,"viability, T/C",[37],1.55%
same,"viability, T/C",[38],1.54%
same,"viability, T/C",[39],1.41%
same,"viability, T/C",[40],0.56%
same,"viability, T/C",[41],0.03%
same,"viability, T/C",[42],0.03%
same,"viability, T/C",[43],0.11%
same,"viability, T/C",[44],0.14%
same,"viability, T/C",[45],0.11%
same,"viability, T/C",[46],0.1%
same,"viability, T/C",[47],0.05%
same,"viability, T/C",[48],0.06%
same,"viability, T/C",[49],0.1%
same,"viability, T/C",[50],0.12%
same,"viability, T/C",[51],0.15%
same,"viability, T/C",[52],0.15%
same,"viability, T/C",[53],0.16%
same,"viability, T/C",[54],0.22%
same,"viability, T/C",[55],0.04%
same,"viability, T/C",[56],0.07%
same,"viability, T/C",[57],0.1%
same,"viability, T/C",[58],0.3%
same,"viability, T/C",[59],0.1%
same,"viability, T/C",[60],0.1%
